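Step 1: Grow cells in 96-well plates. Step 2: Expose to compound for 48 hours at 5 concentrations. Step 3: Interpolate endpoints linearly; if unreached, use highest concentration. GI50 marks 50% less growth.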 Activity calls are given as the source filed them. Cut-off read from the data, not from the text of the source: active = GI50 up to about 1.1 µM and inactive = higher.
Assays:
Assay in all cases: growth of human tumour cells (NCI), 48 h
SN12C = tested on: SN12C
NCI-H23 = tested on: NCI-H23
KM12 = tested on: KM12
SNB-19 = tested on: SNB-19
T47D = tested on: T47D
SK-MEL-2 = tested on: SK-MEL-2
RPMI-8226 = tested on: RPMI-8226
SW-620 = tested on: SW-620
U-251 = tested on: U-251
HCT-116 = tested on: HCT-116
NCI/ADR-RES = tested on: NCI/ADR-RES
SNB-75 = tested on: SNB-75
LOX IMVI = tested on: LOX IMVI
PC-3 = tested on: PC-3
SK-MEL-5 = tested on: SK-MEL-5
Malme-3M = tested on: Malme-3M
HT-29 = tested on: HT-29
NCI-H522 = tested on: NCI-H522
DU-145 = tested on: DU-145
UO-31 = tested on: UO-31
COLO 205 = tested on: COLO 205
BT-549 = tested on: BT-549
SK-OV-3 = tested on: SK-OV-3
M14 = tested on: M14
SF-295 = tested on: SF-295
TK-10 = tested on: TK-10
SK-MEL-28 = tested on: SK-MEL-28
SF-539 = tested on: SF-539
MDA-N = tested on: MDA-N
CCRF-CEM = tested on: CCRF-CEM
EKVX = tested on: EKVX
UACC-257 = tested on: UACC-257
MOLT-4 = tested on: MOLT-4
786-0 = tested on: 786-0
MCF7 = tested on: MCF7
NCI-H460 = tested on: NCI-H460
OVCAR-3 = tested on: OVCAR-3
CAKI-1 = tested on: CAKI-1
Hs-578T = tested on: Hs-578T
SF-268 = tested on: SF-268
ACHN = tested on: ACHN
NCI-H226 = tested on: NCI-H226
HCC 2998 = tested on: HCC 2998
HOP-62 = tested on: HOP-62
OVCAR-4 = tested on: OVCAR-4
MDA-MB-435 = tested on: MDA-MB-435
OVCAR-8 = tested on: OVCAR-8
HCT-15 = tested on: HCT-15
K562 = tested on: K562
MDA-MB-231 = tested on: MDA-MB-231
SR = tested on: SR
OVCAR-5 = tested on: OVCAR-5
UACC-62 = tested on: UACC-62
A549 = tested on: A549
HL-60 = tested on: HL-60
RXF 393 = tested on: RXF 393
IGROV-1 = tested on: IGROV-1
HOP-92 = tested on: HOP-92
A498 = tested on: A498

Measured: GI50

Cc1ccc(N(C)S(=O)(=O)c2ccccc2)cc1
> 100 µM: HCT-15
inactive: SN12C > 100 µM | NCI-H23 95.5 µM | KM12 > 100 µM | SNB-19 > 100 µM | T47D 47.9 µM | SK-MEL-2 > 100 µM | RPMI-8226 59.8 µM | SW-620 > 100 µM | U-251 > 100 µM | HCT-116 86.5 µM | NCI/ADR-RES > 100 µM | SNB-75 > 100 µM | LOX IMVI > 100 µM | PC-3 36.2 µM | SK-MEL-5 67.5 µM | Malme-3M > 100 µM | HT-29 > 100 µM | NCI-H522 > 100 µM | DU-145 > 100 µM | UO-31 > 100 µM | COLO 205 > 100 µM | BT-549 61 µM | SK-OV-3 > 100 µM | M14 > 100 µM | SF-295 > 100 µM | TK-10 > 100 µM | SK-MEL-28 > 100 µM | SF-539 > 100 µM | MDA-N > 100 µM | CCRF-CEM > 100 µM | EKVX 97.9 µM | UACC-257 > 100 µM | MOLT-4 19 µM | 786-0 > 100 µM | MCF7 > 100 µM | NCI-H460 87.9 µM | OVCAR-3 > 100 µM | CAKI-1 > 100 µM | Hs-578T > 100 µM | SF-268 > 100 µM | ACHN > 100 µM | NCI-H226 > 100 µM | HCC 2998 > 100 µM | HOP-62 > 100 µM | OVCAR-4 > 100 µM | MDA-MB-435 74 µM | OVCAR-8 > 100 µM | K562 34.8 µM | MDA-MB-231 88.3 µM | SR 84.7 µM | OVCAR-5 > 100 µM | UACC-62 84.5 µM | A549 > 100 µM | HL-60 > 10 µM | RXF 393 29.5 µM | IGROV-1 > 100 µM

O=C(O)C1NCCc2c1[nH]c1ccccc21 (stereo not given)
inactive: T47D > 10 µM | RPMI-8226 > 10 µM | NCI/ADR-RES > 10 µM | PC-3 > 10 µM | DU-145 > 10 µM | BT-549 > 10 µM | MDA-N > 10 µM | MCF7 > 10 µM | Hs-578T > 10 µM | HOP-62 > 10 µM | MDA-MB-435 > 10 µM | MDA-MB-231 > 10 µM | RXF 393 > 10 µM

CC1OC(OC2C(O[C@@H]3C[C@@H]4CC[C@@H]5[C@H](CC[C@]6(C)[C@@H]7[C@H](C[C@@H]56)O[C@]5(CC[C@@H](C)CO5)[C@H]7C)[C@@]4(C)C[C@H]3O)OC(CO)C(OC3OC(CO)C(O)C(O)C3O)C2O)C(O)C(O)C1O (stereo not given in full)
inactive: HOP-92 2.51 µM | SN12C 1.68 µM | NCI-H23 2.03 µM | KM12 1.98 µM | SNB-19 1.79 µM | T47D 3.66 µM | SK-MEL-2 1.74 µM | A498 1.71 µM | RPMI-8226 3.17 µM | SW-620 1.67 µM | U-251 1.81 µM | HCT-116 3.78 µM | NCI/ADR-RES 1.67 µM | SNB-75 2.25 µM | PC-3 1.52 µM | SK-MEL-5 1.55 µM | Malme-3M 1.29 µM | HT-29 1.53 µM | DU-145 2.08 µM | UO-31 2.12 µM | COLO 205 1.74 µM | BT-549 2.23 µM | SK-OV-3 1.69 µM | M14 1.69 µM | SF-295 1.56 µM | SK-MEL-28 1.75 µM | SF-539 1.77 µM | MDA-N 1.91 µM | CCRF-CEM 1.92 µM | EKVX 1.51 µM | UACC-257 1.87 µM | MOLT-4 1.96 µM | 786-0 1.73 µM | MCF7 1.85 µM | NCI-H460 1.76 µM | OVCAR-3 1.65 µM | CAKI-1 1.78 µM | Hs-578T 2.02 µM | SF-268 1.84 µM | ACHN 1.79 µM | NCI-H226 1.44 µM | HOP-62 1.83 µM | OVCAR-4 2.06 µM | MDA-MB-435 1.78 µM | OVCAR-8 1.52 µM | K562 5.92 µM | MDA-MB-231 1.8 µM | OVCAR-5 1.59 µM | UACC-62 1.92 µM | A549 1.57 µM | HL-60 1.91 µM | RXF 393 2.01 µM | IGROV-1 1.14 µM
2.17 µM: HCT-15
active: NCI-H522 1.1 µM

Reference: ChEMBL document CHEMBL1201862, “PubChem BioAssay data set” (2004)
